The values that follow come from US10072023B2, “Diarylethene compounds and uses thereof” (SWITCH MATERIALS, INC., priority 2011, dated 2018).

The nature of this data set: Absorbance at photostationary state (PSS) under simulated sunlight or 365 nm light. In kind it is physicochemical. The arrangement: λ max: unit not given here. As to conditions: for Absorbance at PSS, 365 nm: 365 nm light source; for Absorbance at PSS, 365 nm / Absorbance at PSS, full / Absorbance at PSS, +UV / λ max: 2.0×10^−5 M in triglyme; for sensitivity index: ratio of PSS under 365 nm light to PSS under full spectrum light (without UV blocking film); for Absorbance at PSS, full: simulated sunlight (QSUN solar simulator), no UV blocking film; for Absorbance at PSS, +UV: simulated sunlight with UV blocking film (cutoff 370 nm); for λ max: wavelength of maximum absorbance in the visible range, ring-closed isoform. As for the experimental part:
Absorbance at a PSS for selected compounds was measured at 2.0×10^−5 M in triglyme in the absence (full) or presence (+UV) of a UV blocking film with a UV cutoff wavelength of 370 nm (10% transmission at 370 nm), using simulated sunlight (QSUN solar simulator) as a light source, or a 365 nm light source; these PSS are reported in Tables 1.5. […] “Switch” refers to the ability (yes or no) of the compound to be reversibly converted under photochromic and electrochromic conditions between a ring-open isomer and ring-closed isomer.
A sensitivity index (SI) is a ratio of the PSS under 365 nm light to the PSS under full spectrum light (without UV blocking film). SI is an indicator of the sensitivity of the compound to the composition of the incident light (a change in the ratio of UV and visible components)—photochemical ring-opening is induced by a portion of the visible light spectrum.
Photostationary State (PSS) UV/Vis spectra are obtained using an OceanOptics™ Spectrophotometer until absorption in the visible region of the spectrum stabilizes. A 2×10^−5M solution of compound in solvent is prepared, and photofaded using visible light until absorption in the visible region of the spectrum stabilizes. The sample is then irradiated with simulated sunlight (QSUN SS-150 Solar Simulator with xenon arc lamp) until the absorption spectrum stabilizes. To obtain PSS in the presence of a UV blocking film, a second sample is prepared and irradiated as described, with a UV blocking film inserted in the light path when irradiating.

SMILES strings stand for the structures.

In the case of `CC(C)(C)c1ccc(-c2cc(C3=C(c4cc(-c5ccc(C(C)(C)C)s5)sc4-c4ccc(N5CCOCC5)cc4)C(F)(F)C(F)(F)C3(F)F)c(-c3ccc(N4CCOCC4)cc3)s2)s1` [S112, 4,4′-((4,4″-(perfluorocyclopent-1-ene-1,2-diyl)bis(5′-(tert-butyl)-[2,2′-bithiophene]-5,4-diyl))bis(4,1-phenylene))dimorpholine], the “Absorbance at PSS, 365 nm” value was 0.318; the sensitivity index was 1.14; the “Absorbance at PSS, full” value was 0.278; the “Absorbance at PSS, +UV” value is given as 0.246. The molecule also yielded a λ max of 663.

For `CC(C)(C)c1ccc(-c2cc(C3=C(c4cc(-c5ccc(C(C)(C)C)s5)sc4-c4ccc(O[Si](O[Si](C)(C)C)(O[Si](C)(C)C)O[Si](C)(C)C)cc4)C(F)(F)C(F)(F)C3(F)F)c(-c3ccc(O[Si](O[Si](C)(C)C)(O[Si](C)(C)C)O[Si](C)(C)C)cc3)s2)s1` [S118], the “Absorbance at PSS, 365 nm” value is 0.34; the sensitivity index is recorded as 1.52; the “Absorbance at PSS, full” value is 0.223; the “Absorbance at PSS, +UV” value is recorded as 0.124. The molecule further returned a λ max of 648.

`CC(C)(C)c1ccc(-c2cc(C3=C(c4cc(-c5ccc(C(C)(C)C)s5)sc4-c4ccc(C(=O)O)s4)C(F)(F)C(F)(F)C3(F)F)c(-c3ccc(C(=O)O)s3)s2)s1` [S119]: the “Absorbance at PSS, 365 nm” value is on record as 0.405; the “Absorbance at PSS, full” value is 0.343; the “Absorbance at PSS, +UV” value is on record as 0.295.

Turning to `CC(C)(C)c1ccc(-c2cc(C3=C(c4cc(-c5sc(C(C)(C)C)cc5C(=O)O)sc4-c4ccc(C(=O)O)s4)C(F)(F)C(F)(F)C3(F)F)c(-c3ccc(C(=O)O)s3)s2)s1` [S124], the “Absorbance at PSS, 365 nm” value was 0.344; the sensitivity index is reported as 1.38; the “Absorbance at PSS, full” value is 0.249; the “Absorbance at PSS, +UV” value is given as 0.225. In addition, the λ max is reported as 649.

Take `C[Si](C)(C)c1ccc(-c2cc(C3=C(c4cc(-c5ccc([Si](C)(C)C)s5)sc4-c4ccc([Si](C)(C)C)s4)C(F)(F)C(F)(F)C3(F)F)c(-c3ccc([Si](C)(C)C)s3)s2)s1` [S135, 3′,3″″-(perfluorocyclopent-1-ene-1,2-diyl)bis(5,5″-bis(trimethylsilyl)-2,2′:5′,2″-terthiophene)]: the “Absorbance at PSS, 365 nm” value is 0.387; the sensitivity index is 1.22; the “Absorbance at PSS, full” value was 0.318; the “Absorbance at PSS, +UV” value is on record as 0.224. The same molecule registered a λ max of 648.

With `Cc1ccc(-c2oc3ccccc3c2C2=C(c3c(-c4ccc(C)s4)oc4ccccc34)C(F)(F)C(F)(F)C2(F)F)s1` [S137, 3,3′-(perfluorocyclopent-1-ene-1,2-diyl)bis(2-(5-methylthiophen-2-yl)benzofuran)], the “Absorbance at PSS, 365 nm” value is listed as 0.15; the sensitivity index was 4.55; the “Absorbance at PSS, full” value is recorded as 0.033; the “Absorbance at PSS, +UV” value is reported as 0.016. Besides, the λ max was 497.

Turning to `CC(C)(C)c1ccc(-c2cc(C3=C(c4cc(-c5ccc(C(C)(C)C)s5)sc4-c4ccc(OCCCCC#N)cc4)C(F)(F)C(F)(F)C3(F)F)c(-c3ccc(OCCCCC#N)cc3)s2)s1` [S139, 5,5′-(((4,4″-(perfluorocyclopent-1-ene-1,2-diyl)bis(5′-(tert-butyl)-[2″,2″′-bithiophene]-5″,4-diyl))bis(4,1phenylene))bis(oxy))dipentanenitrile], the “Absorbance at PSS, 365 nm” value is recorded as 0.403; the “Absorbance at PSS, full” value is listed as 0.322; the “Absorbance at PSS, +UV” value is on record as 0.216.

On to `COc1ccc(-c2oc3cc(OC)ccc3c2C2=C(c3c(-c4ccc(OC)cc4)oc4cc(OC)ccc34)C(F)(F)C(F)(F)C2(F)F)cc1` [S140, 3,3′-(perfluorocyclopent-1-ene-1,2-diyl)bis(6-methoxy-2-(4-methoxyphenyl)benzofuran)], for which the “Absorbance at PSS, 365 nm” value is reported as 0.276; the sensitivity index is on record as 4.25; the “Absorbance at PSS, full” value is given as 0.065; the “Absorbance at PSS, +UV” value is on record as 0.032. The same molecule had a λ max of 516.

`CC(C)(C)c1ccc(-c2cc(C3=C(c4cc(-c5ccc(C(C)(C)C)s5)sc4-c4ccc(OCCCCC(=O)O)cc4)C(F)(F)C(F)(F)C3(F)F)c(-c3ccc(OCCCCC(=O)O)cc3)s2)s1` [S141, 5,5′-(4,4′-(4,4′-(perfluorocyclopent-1-ene-1,2-diyl)bis(5′-tert-butyl-2,2′-bithiophene-5,4-diyl))bis(4,1-phenylene)bis(oxy))dipentanoic acid]: the “Absorbance at PSS, 365 nm” value was 0.377; the “Absorbance at PSS, full” value is listed as 0.282; the “Absorbance at PSS, +UV” value is recorded as 0.183.

Take `COc1ccc2c(C3=C(c4c(-c5ccc(C)s5)oc5cc(OC)ccc45)C(F)(F)C(F)(F)C3(F)F)c(-c3ccc(C)s3)oc2c1` [S144, 3,3′-(perfluorocyclopent-1-ene-1,2-diyl)bis(6-methoxy-2-(5-methylthiophen-2-yl)benzofuran)]: the “Absorbance at PSS, 365 nm” value was 0.318; the sensitivity index is reported as 3.88; the “Absorbance at PSS, full” value was 0.082; the “Absorbance at PSS, +UV” value is on record as 0.04. For the same molecule, the λ max is given as 513.

As to `Cc1cc(-c2sc(-c3sc(C)c(C)c3C)cc2C2=C(c3cc(-c4sc(C)c(C)c4C)sc3-c3cc(C)c(C)s3)C(F)(F)C(F)(F)C2(F)F)sc1C` [S148, 4′,4″″-(perfluorocyclopent-1-ene-1,2-diyl)bis(3,4,4″,5,5″-pentamethyl-2,2′:5′,2″-terthiophene)], the “Absorbance at PSS, 365 nm” value is on record as 0.244; the sensitivity index was 1.63; the “Absorbance at PSS, full” value is listed as 0.15; the “Absorbance at PSS, +UV” value was 0.092. Also, the λ max was 650.

Consider `Cc1csc(-c2cc(C3=C(c4cc(-c5cc(C)cs5)sc4-c4cc(C)cs4)C(F)(F)C(F)(F)C3(F)F)c(-c3cc(C)cs3)s2)c1` [S149, 3′,3″″-(perfluorocyclopent-1-ene-1,2-diyl)bis(4,4″-dimethyl-2,2′:5′,2″-terthiophene)], for which the “Absorbance at PSS, 365 nm” value was 0.339; the sensitivity index is given as 1.41; the “Absorbance at PSS, full” value was 0.241; the “Absorbance at PSS, +UV” value is reported as 0.169. This molecule had a λ max of 647.

`COc1ccc2c(C3=C(c4c(-c5ccc(C(C)(C)C)cc5)oc5cc(OC)ccc45)C(F)(F)C(F)(F)C3(F)F)c(-c3ccc(C(C)(C)C)cc3)oc2c1` [S151, 3,3′-(perfluorocyclopent-1-ene-1,2-diyl)bis(2-(4-(tert-butyl)phenyl)-6-methoxybenzofuran)]: the “Absorbance at PSS, 365 nm” value is on record as 0.403; the sensitivity index is listed as 3.80; the “Absorbance at PSS, full” value is on record as 0.106; the “Absorbance at PSS, +UV” value is 0.056. In addition, the λ max is reported as 514.

In the case of `COc1ccc2c(C3=C(c4c(-c5ccc(-c6ccc(C(C)(C)C)s6)s5)oc5cc(OC)ccc45)C(F)(F)C(F)(F)C3(F)F)c(-c3ccc(-c4ccc(C(C)(C)C)s4)s3)oc2c1` [S152, 3,3′-(perfluorocyclopent-1-ene-1,2-diyl)bis(2-(5′-(tert-butyl)-[2,2′-bithiophen]-5-yl)-6-methoxybenzofuran)], the “Absorbance at PSS, 365 nm” value is 0.263; the sensitivity index was 3.81; the “Absorbance at PSS, full” value is on record as 0.069; the “Absorbance at PSS, +UV” value was 0.06. The λ max is on record as 522.
